The test system of data set [1] is canine coronary microvessels, epicardial coronary artery and aorta. As to the kind of experiment: nitrite production (vascular NO release) in canine coronary microvessels, epicardial coronary artery and aorta. It counts as cell-based.
The test system of another data set is canine myocardium. Briefly: cardiac oxygen consumption in canine myocardium in vitro. It counts as cell-based.
In data set [2] the test system is hypoxic Langendorff mouse hearts. As to the kind of experiment: hypoxic Langendorff mouse hearts perfused with enantiomer: myocardial glucose uptake and time to cessation of beating. The note with it: hypoxic heart, 10^−7M solution.
Data set [3] concerns vascular smooth muscle cell. The settings on record: in vitro; cited from earlier work.
The conditions of data set [4]: in vivo; cited from earlier work.
In the next data set the test system is calcium channel. The note with it: cited from earlier work.
The mark [5] stands for this setting: identical study, increasing concentrations.

Where “and” joins values, the source holds several entries; their conditions need not be identical. Identical values can stand only once. Some results are limits rather than exact numbers.

With `CCOC(=O)C1=C(COCCN)NC(C)=C(C(=O)OC)[C@H]1c1ccccc1Cl` (single isomer, unassigned) [R(+) enantiomer], the “effect of NO synthase inhibitor L-NAME on the increase in nitrite production” value in data set [1] was “wholly or partly blocked”. For the same molecule, in data set [1] (enantiomer concentration of 10^−9M), the “concentration-dependent increase in nitrite production, up to” value is “about 65 pmol/mg”. In data set [1] (free concentration), the “free concentration at which maximum NO release as measured by nitrite production was observed” value is 10^−9 M and 0.4 ng/ml. The “effect of NO synthase inhibitor L-NAME on the reduction in oxygen consumption” value in the data set with canine myocardium is given as “wholly or partly blocked”. The “reduction in oxygen consumption” value in the data set on canine myocardium (enantiomer concentration of 10^−5M) was “about 30%”. In data set [2], the “increase in survival time” value was “three-fold” and the “reduction in myocardial glucose uptake” value is “over 50%”. In data set [2] (untreated 9 minutes), the “time to cessation of beating (TCB)” value was “about 33 minutes”. The “myocardial glucose uptake (MGU)” value in data set [2] (untreated hypoxic 0.57, normoxic 0.36) is listed as 0.27 μg/min.mg. In data set [3], the “PDGF-induced vascular smooth muscle cell migration” value is given as “inhibit”.
As for `CCOC(=O)C1=C(COCCN)NC(C)=C(C(=O)OC)[C@@H]1c1ccccc1Cl` (single isomer, unassigned) [S(−) enantiomer], in data set [1] (setting [5]), the “nitrite production (in words)” value is listed as “no evidence of nitrite production”. Moreover, the “effect of NO synthase inhibitor L-NAME on the reduction in oxygen consumption” value with canine myocardium is listed as “not blocked”. Besides, the “reduction in oxygen consumption (in words)” value in the data set with canine myocardium (setting [5]) is listed as “a reduction in oxygen consumption was observed”. Also, the “dose in excess of which adverse effects arise (marked and sustained fall in blood pressure, reduced coronary blood flow)” value in data set [4] was above 0.5 mg/kg. In addition, the “calcium channel-blocking activity of the racemate resides in” value with calcium channel is on record as “largely, but not exclusively”.

(Values after US6887886B2, “Therapeutic compositions comprising excess enantiomer” (Pfizer Inc., priority 2000, dated 2005).)
